Measurements taken from patent publication US20110152362A1, “METHODS OF TREATING EPILEPTOGENESIS AND EPILEPSY” (priority 2004, published 2011).

Columns and labels:
[1] = system: rats subjected to li-pilo SE; experiment: Example 2: mortality over the first 48 h after Li-pilo SE; type: in vivo, rat; set-up: concentration or dose not given beside the values
[2] = system: rats subjected to li-pilo SE; experiment: Example 2: quantification of cell densities 14 days after li-pilo SE;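 note: Thionine-stained 20 µm brain sections, neurons with cell bodies above 10 µm counted, value is the mean of 12 fields per structure from three adjacent sections, both sides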
Protocol: All rats received lithium chloride (3 meq/kg, i.p., Sigma, St Louis, Mo., U.S.A.) and about 20 h later, all animals received also methylscopolamine bromide (1 mg/kg, s.c., Sigma) that was administered to limit the peripheral effects of the convulsant. […] The effects of increasing doses of TC were studied in 5 groups of rats. […] The control group received vehicle instead of pilocarpine and TC.
For neuronal counting, animals were deeply anesthetized with 1.8 g/kg pentobarbital (Dolethal®, Vetoquinol, Lure, France). Brains were then removed and frozen. Serial 20 μm slices were cut in a cryostat, air-dried during several days before thionine staining. […] The grid of counting was placed on a well defined area of the cerebral structure of interest and counting was carried out with a microscopic enlargement of 200- or 400-fold defined for each single cerebral structure. Cell counts were performed twice on each side of three adjacent sections for each region by a single observer unaware of the animal's treatment. The number of cells obtained in the 12 counted fields in each cerebral structure was averaged. This procedure was used to minimize the potential errors that could result from double counting leading to overestimation of cell numbers. […] Counts involved only neurons with cell bodies larger than 10 μm. Cells with small cell bodies were considered as glial cells and were not counted.
For neuronal damage and epileptogenesis, statistical analysis between groups was performed by means of a one-way analysis of variance followed by a post-hoc Dunnett or Fisher test using the Statistica software.

[3] = pilo-TC30 (TC 30 mg/kg), 14 days after li-pilo SE
[4] = pilo-TC60 (TC 60 mg/kg), 14 days after li-pilo SE

NC(=O)OC[C@@H](O)c1ccccc1Cl [TC]
mortality over the first 48 h after SE ([1]; TC30, group for cell counting at 14 days): 33% | mortality over the first 48 h after SE ([1]; TC30, group for latency to SRS and late cell counting): 27% | mortality over the first 48 h after SE ([1]; TC60, group for cell counting at 14 days): 8% | mortality over the first 48 h after SE ([1]; TC60, group for latency to SRS and late cell counting): 0% | mortality over the first 48 h after SE ([1]; TC90, group for cell counting at 14 days): 0% | mortality over the first 48 h after SE ([1]; TC90, group for latency to SRS and late cell counting): 0% | mortality over the first 48 h after SE ([1]; TC120, group for cell counting at 14 days): 33% | mortality over the first 48 h after SE ([1]; TC120, group for latency to SRS and late cell counting): 0% | protective effects at lowest dose tested in Example 2 ([2]; 30 mg/kg): some measurable protective effects | neuronal drop out, layer II of the dorsal piriform cortex ([2]; TC 60 mg/kg, 14 days after SE): 25% | damage remaining, ventral entorhinal cortex layer II ([2]; TC 90 mg/kg, 14 days after SE): 4% | damage remaining, ventral entorhinal cortex layers III/IV ([2]; TC 90 mg/kg, 14 days after SE): 17% | neuronal density in piriform cortex, % of control levels ([2]; TC 120 mg/kg, 14 days after SE): 78-96 % of control levels | neurons surviving in entorhinal cortex, dorsal and ventral ([2]; TC 120 mg/kg, 14 days after SE): 85-94% | cell loss (drop out) in the hilus of dentate gyrus ([2]; TC30, 60 and 90 groups (range also covers DZP), 14 days after SE): 61-66% | cell loss, CA1 pyramidal cell layer ([2]; TC30, 60 or 90 rats, 14 days after SE): 36-47% | cell loss, CA1 pyramidal cell layer ([2]; TC120 group, 14 days after SE): 12% | neuronal loss in the hilus of dentate gyrus ([2]; TC120 group, 14 days after SE): 53% | neuronal drop out in thalamic nuclei ([2]; TC120 rats, 14 days after SE): 4-19% | number of neurons in all amygdala nuclei, % of the control level ([2]; highest dose, 120 mg/kg, 14 days after SE): 86-99 % of the control level | number of neuronal cell bodies: Amygdala Basolateral [2, 3]: 27.3 ± 4.9**° | number of neuronal cell bodies: Amygdala Medial, dorsal anterior [2, 3]: 46.8 ± 5.0 | number of neuronal cell bodies: Amygdala Medial, ventral posterior [2, 3]: 22.3 ± 1.8 | number of neuronal cell bodies: Cerebral cortex Entorhinal, layer II, dorsal [2, 3]: 23.4 ± 0.6 | number of neuronal cell bodies: Cerebral cortex Entorhinal, layer II, ventral [2, 3]: 22.7 ± 0.9 | number of neuronal cell bodies: Cerebral cortex Entorhinal, layer III/IV, dorsal [2, 3]: 22.3 ± 0.5 | number of neuronal cell bodies: Cerebral cortex Entorhinal, layer III/IV, ventral [2, 3]: 13.2 ± 1.9 | number of neuronal cell bodies: Cerebral cortex Piriform, layer II, dorsal [2, 3]: 15.7 ± 2.9 | number of neuronal cell bodies: Cerebral cortex Piriform, layer II, ventral [2, 3]: 7.2 ± 3.8 | number of neuronal cell bodies: Cerebral cortex Piriform, layer III [2, 3]: 1.8 ± 1.8 | number of neuronal cell bodies: Hippocampus CA1 area [2, 3]: 39.3 ± 44**°° | number of neuronal cell bodies: Hippocampus CA3 area [2, 3]: 35.7 ± 1.8 | number of neuronal cell bodies: Hippocampus Hilus [2, 3]: 33.0 ± 3.2 | number of neuronal cell bodies: Thalamus Central medial [2, 3]: 75.6 ± 7.7 | number of neuronal cell bodies: Thalamus Dorsolateral, medial, dorsal [2, 3]: 64.2 ± 9.3**°° | number of neuronal cell bodies: Thalamus Dorsolateral, ventral lateral [2, 3]: 8.8 ± 2.8 | number of neuronal cell bodies: Thalamus Mediodorsal central [2, 3]: 26.9 ± 0.6 | number of neuronal cell bodies: Thalamus Mediodorsal lateral [2, 3]: 20.5 ± 0.7 | number of neuronal cell bodies: Thalamus Mediodorsal medial [2, 3]: 11.5 ± 2.5 | number of neuronal cell bodies: Amygdala Basolateral [2, 4]: 27.8 ± 4.3**°° | number of neuronal cell bodies: Amygdala Medial, dorsal anterior [2, 4]: 58.4 ± 2.8**° | number of neuronal cell bodies: Amygdala Medial, ventral posterior [2, 4]: 26.2 ± 2.9 | number of neuronal cell bodies: Cerebral cortex Entorhinal, layer II, dorsal [2, 4]: 23.9 ± 0.5 | number of neuronal cell bodies: Cerebral cortex Entorhinal, layer II, ventral [2, 4]: 23.3 ± 0.8 | number of neuronal cell bodies: Cerebral cortex Entorhinal, layer III/IV, dorsal [2, 4]: 23.2 ± 0.8 | number of neuronal cell bodies: Cerebral cortex Entorhinal, layer III/IV, ventral [2, 4]: 16.5 ± 2.2 | number of neuronal cell bodies: Cerebral cortex Piriform, layer II, dorsal [2, 4]: 27.5 ± 2.8**°° | number of neuronal cell bodies: Cerebral cortex Piriform, layer II, ventral [2, 4]: 13.7 ± 4.2 | number of neuronal cell bodies: Cerebral cortex Piriform, layer III [2, 4]: 6.4 ± 2.3 | number of neuronal cell bodies: Hippocampus CA1 area [2, 4]: 31.9 ± 44**°° | number of neuronal cell bodies: Hippocampus CA3 area [2, 4]: 31.6 ± 1.4 | number of neuronal cell bodies: Hippocampus Hilus [2, 4]: 32.8 ± 3.3 | number of neuronal cell bodies: Thalamus Central medial [2, 4]: 83.7 ± 9.6 | number of neuronal cell bodies: Thalamus Dorsolateral, medial, dorsal [2, 4]: 77.5 ± 3.9**°° | number of neuronal cell bodies: Thalamus Dorsolateral, ventral lateral [2, 4]: 56.7 ± 8.7
